# Assay results published in paper PMC6331810, “Novel Coumarin-Containing Aminophosphonatesas Antitumor Agent: Synthesis, Cytotoxicity, DNA-Binding and Apoptosis Evaluation” (Molecules, 2015).
# What was measured:
# CT-DNA = assay: Spectrofluorimetric titration with CT-DNA (Stern-Volmer and binding constants); design: species or system calf; conditions: from F0/F-1 vs [DNA]; Tris-HCl buffer pH 7.2
# Description: The DNA binding properties of compounds 8a–8j were evaluated based on their affinity or interaction with CT-DNA, measured with fluorescence spectrometric titration.
# The calibration curve for determination of DNA was constructed by adding different proportion of DNA to a 2.0 × 10^−3 M compound 8j solution (pH = 7.2 Tris-HCl buffer). […] [Q] is the concentration of quencher. KSV is the Stern-Volmer constant and KQ is the bimolecular quenching rate constant. τ0 is the lifetime of the fluorophore in the absence of quencher and for most biomolecules τ0 is about 10^−8 s. The Stern-Volmer constant, KSV, for compound 8j has been determined from the plot of F0/F-1 vs. [DNA] (see Figure 2) and found to be 5.11 × 10^2 M^−1.
# When small molecules binding independently to a set of equivalent sites on a macromolecule, the equilibrium between free and bound molecules is given by the equation [28]: (2) lg (F0/F-1) = lgKb + nlg[Q] where Kb and n are the binding constant and the number of binding sites, respectively, which could be got from the curve of lg(F0/F-1) vs. lg[Q]. The plot of lg(F0/F-1) vs. lg[DNA] has been shown in Figure 3 for compound 8j and indicates a simple binding process for the compound.
# All fluorescence experiments were carried out on a Perkin-Elmer LS50B luminescence spectrometer. Fluorescence spectra were measured at rt using quartz cells of 1cm path. To the solutions of the drugs (2.0 × 10^−3 M) in 2.5 mL Tris-HCl buffer (pH = 7.2) were added aliquots of CT-DNA (2.0 × 10^−3 M) solution containing drugs (2.0 × 10^−3 M) in 2.5 mL Tris-HCl buffer (pH = 7.2). This operation ensured that the concentration of CT-DNA increased gradually from 0 to 360 µM, while the concentrations of drugs were kept constant. The mixing was achieved by stirring for 10min. Then, the corresponding fluorescence spectra were measured (ex 325 nm, ex/em 1.5 nm/1.5 nm). Binding constants were derived from the modified.
# [1] = test system: MGC-803 (human lung adenocarcinoma cell line); assay: MTT cytotoxicity assay, MGC-803; format: cell-based; conditions: 48 h, no irradiation, mean ± SD of three experiments
# Description: (§1) Cell Lines. The following in vitro human cancer cell lines were used: HCT-116 (Human colorectal cells), human KB (human nasopharyngeal carcinoma cells), MGC-803 (human lung adenocarcinoma cell line), HUVEC (Human Umbilical Vein Endothelial Cells). The cell lines (HCT-116, KB, MGC-803 and HUVEC) were purchased from the Cell Resource Center of Shanghai Institutes for Biological Sciences, the Academy of Sciences of China.
# (§2) Cell Culture. HCT-116, human KB, MGC-803 and HUVEC cells were cultured in Dulbecco Modified Eagle Medium (DMEM; HyClone, Los Angeles, CA, USA), containing 4.0 mM L-Glutamine and 4500 mg/L Glucose, supplemented with 10% (v/v) foetalbovine serum (FBS; HyClone). The cell culturemedia was supplemented with penicillin/streptomycin at 100 Units/mL as adherent monolayers. Cell cultures were kept in a humidified incubator with 5% CO2 at 37 °C. Stock solutions were prepared in dimethyl sulfoxide (DMSO) and further dilutions were made with fresh culture medium. The concentration of DMSO in the final culture medium was 1%, which had no effect on the cell viability.
# (§3) MTT Assay. Chemosensitivity was assessed using 3-(4,5-dimethylthiazol-2-yl)-2,5-diphenyl tetrazolium bromide (MTT) assay. Briefly, exponentially growing HCT-116 (3000–4000 cells/well), human KB (2000–3000 cells/well) and MGC 803 (2000–3000 cells/well) were seeded into 96-well plates and treated with indicated concentrations of samples for 48 h, and then […] of MTT (10 mg/mL) was added. After incubation for 4 h at 37 °C, the purple formazan crystals (i.e., a reduced form of MTT) generated from viable cells were dissolved by adding 100 μL DMSO in each well. The plates were swirled gently for 10 min to dissolve the precipitate, and quantified by measuring the optical density (OD) of the plates at a wavelength of 490 nm on plate reader (TECAN infinite M1000). Each concentration was repeated in three wells and the same experimental conditions were provided for all compounds and MTT analysis was repeated three times for each cell line.
# [2] = test system: human KB (human nasopharyngeal carcinoma cells); assay: MTT cytotoxicity assay, human KB; format: cell-based; conditions: Homo sapiens, light or radiation study, 48 h, no irradiation, mean ± SD of three experiments
# Description: as §1, §2, §3
# [3] = test system: Bax, Bcl-2, cytochrome c, caspase-9 and caspase-3 in HCT-116 cells; assay: Western blot of apoptosis-related proteins; format: cell-based, human
# Text: To confirm the molecular mechanisms involved in the observed apoptosis alterations, we investigated the effects of compound 8j on the expression of proteins important for mitochondria mediated apoptosis. Apoptosis occurs through two different pathways, that is the intrinsic and extrinsic pathways. Intrinsic pathway involves mitochondria that play a pivotal role in apoptosis, whereas extrinsic pathway is mediated by cell death receptors such as Fas, TNF α after receiving the death signal. It is well-known that the intrinsic pathway is regulated by the Bcl-2 family of pro- and anti- apoptotic proteins, which stimulate the permeabilization of the mitochondrial outer membrane and cytochrome c released into the cytosol, promoting in the activation of the caspase cascade and the induction of apoptotic cell death. […] Then, the roles of important caspases (caspase-9 and caspase-3) were investigated. […] Thus, compound 8j induced HCT-116 cells apoptosis might decrease the activation of Bcl-2 and stimulate its downstream proteins which are associated with the mitochondria-dependent apoptotic pathway.
# Figure 7 Effect of compound 8j on cytochrome c release and levels of Bcl-2, Bax, Caspase-9 and Caspase-3. Equal amount of protein was loaded on SDS-PAGE gel for western blot analysis as described in experimental section. β-actin was used as an internal control.
# [4] = HCT-116, vs control cells, dose-dependent
SMILES,KSV (Stern-Volmer constant) (CT-DNA) [M⁻¹],IC50 [1] [µM],IC50 [2] [µM],"IC50 ([1]; Homo sapiens, MGC-803, light or radiation study) [µM]","Cytochrome c release ([3]; HCT-116, cytosol)","Levels of caspase-3 protein ([3]; HCT-116, vs control)","Levels of caspase-9 protein ([3]; HCT-116, vs control)","Expression of Bcl-2 [3, 4]","Levels of Bax [3, 4]"
"CCOP(=O)(OCC)C(NC(=O)CCOc1ccc2c(C)cc(=O)oc2c1)c1cccc(Br)c1 (stereo not shown) [Compound 8f, Diethyl(3-(4-methyl-2-oxo-2H-chromen-7-yloxy)propanamido)(3-bromophenyl)methylphospho-nate]",412,74.2 ± 3.36,–,–,–,–,–,–,–
"CCOP(=O)(OCC)C(C)(NC(=O)CCOc1ccc2c(C)cc(=O)oc2c1)c1ccccc1 (stereo not shown) [Compound 8j, Diethyl 1-(3-(4-methyl-2-oxo-2H-chromen-7-yloxy)propanamido)-1-phenylethylphosphonate]",511,–,0.08,14.6 ± 1.11,accumulation of cytochrome c in the cytosol,marked increase,marked increase,decrease,significant increase
